Assay results reported in US12491185B2, “Inhibitors of mPTP” (NRG Therapeutics Ltd, priority 2023, dated 2025).

Test system: mPTP
Assay: mPTP activity (Ca2+ retention) assay in isolated rat liver mitochondria
Assay type: biochemical
Settings: examples tested by different contract research organisations, believed comparable
Source text: Pharmacological inhibition or modulation of the mPTP can be measured in well characterised ‘Ca^2+ retention’ assays performed in isolated mitochondria. In vitro, isolated mitochondria rapidly sequester exogenous Ca^2+ until the intramitochondrial Ca^2+ concentration reaches the threshold for mPTP activation. Once the pore is activated, mitochondrial integrity is compromised and the stored Ca^2+ is released. The distribution of Ca^2+ between extra- and intra-mitochondrial compartments can be measured in real time with the use of membrane-impermeant Ca^2+ sensitive fluorescent dyes. Depending on the configuration of the assay, inhibition or modulation of the mPTP either delays the opening of the pore or increases the concentration of Ca^2+ required to induce mPTP opening.
MPTP activity was measured in mitochondria freshly isolated from female Sprague Dawley (250 to 300 gram) rat livers using the following method. Cervical dislocation was performed on the rat. The liver was then perfused in-situ with −40 ml cold Dulbecco's Phosphate Buffered Saline (DPBS) prior to dissection and transferred into 30 ml Isolation Buffer (250 mM Sucrose, 10 mM KCl, 1 mM EGTA, 1 mM EDTA, 25 mM HEPES, adjusted to pH 7.5 with 1M NaOH). Each lobe of the liver was then removed from the buffer, minced using tweezers and a scalpel into −5 mm pieces then transferred into a 50 ml Potterton dounce homogenization tube on ice containing 30 ml ice-cold centrifugation buffer (300 mM Trehalose, 25 mM HEPES, 1 mM EGTA, 1 mM EDTA, 10 mM KCl, adjusted to pH 7.5 with 1M NaOH and supplemented with 0.1% bovine serum albumin (BSA) and complete protease inhibitor cocktail (one tablet of inhibitor per 50 mls of buffer). Homogenisation was carried out using a teflon pestle at 1800 rpm. The slurry was centrifuged at 800 g for 10 min at 4° C., then the supernatant centrifuged at 10,000 g for 10 min. The pellet was washed once with FLIPR assay buffer (75 mM Mannitol, 25 mM Sucrose, 5 mM Potassium Phosphate Monobasic, 20 mM Tris base, 100 mM KCl, 0.1% BSA adjusted to pH 7.4 with 5M HCl) centrifuged again, then resuspended in FLIPR assay buffer to a concentration of 8.8 mg/ml protein.
Tested compounds (10 mM stock in DMSO) were serially diluted in DMSO in half log steps to generate 10 test concentrations (final concentrations in assay 30 μM to 1 nM). An intermediate dilution of 5 μl DMSO samples into 247 μl FLIPR assay buffer was carried out prior to transfer of 5 μl into duplicate wells of a 384 well polypropylene assay plate. Control wells were 0.5% (v/v) DMSO and 5 μM cyclosporin A.
A stock mitochondria/Fluo5N assay solution was prepared in 5.6 ml FLIPR assay buffer (at RT) supplemented with succinate disodium salt (10 mM), rotenone (1 μM), Fluo5N pentapotassium salt (2 μM) and 1 ml mitochondria suspension, then transferred (15 μl) into the assay plate containing test compounds and incubated for 10 min at RT. Assay plates were processed for fluorescence detection on either a FLIPR Tetra (Molecular Devices) or CLARIOstar (BMG) plate reader. For kinetic fluorescence detection on the FLIPR, dye fluorescence was measured every 3 sec for a total of 10 min. After 12 sec, a 2.5 μl bolus of CaCl2 (75 μM) was added from a source plate containing 675 μM CaCl2 in FLIPR assay buffer. Alternatively, the 2.5 μl addition of CaCl2 was performed using a Viaflow 384, plates were incubated at RT for 10 min, and dye fluorescence measured after 10 min on the CLARIOstar plate reader. pIC50 values for tested compounds were calculated using the fluorescence value collected at the 10 min timepoint on either plate reader, with % inhibition calculated using the DMSO control and cyclosporin A values as 0 and 100% respectively.

For `CC(NC(=O)c1nn(C)c(=O)[nH]1)C(C)(C)Cc1ccccc1` (single isomer, unassigned) [Example 39A, N-(3,3-dimethyl-4-phenylbutan-2-yl)-1-methyl-5-oxo-4,5-dihydro-1H-1,2,4-triazole-3-carboxamide], the “mPTP Rat liver pIC50” value was under 4.57.
In the case of `O=C1COCC(C(=O)NCC2(Cc3ccccc3)CCC2)N1` (stereo not drawn) [Example 65, N-((1-benzylcyclobutyl)methyl)-5-oxomorpholine-3-carboxamide], the “mPTP Rat liver pIC50” value is reported as under 4.52.
In the case of `O=C(NCC1(Cc2ccccc2)CCC1)c1nc2ccccc2c(=O)[nH]1` [Example 66, N-((1-benzylcyclobutyl)methyl)-4-oxo-3,4-dihydro-quinazoline-2-carboxamide], the “mPTP Rat liver pIC50” value is reported as under 4.52.
`Cn1nc(C(=O)NCC(C)(C)Cc2ccccc2)ccc1=O` [Example 67, N-(2,2-dimethyl-3-phenylpropyl)-1-methyl-6-oxo-1,6-dihydro-pyridazine-3-carboxamide] was tested, and the “mPTP Rat liver pIC50” value was under 4.52.
For `Cn1c(=O)[nH]cc(C(=O)NCC(C)(C)Cc2ccccc2)c1=O` [Example 68, N-(2,2-dimethyl-3-phenylpropyl)-3-methyl-2,4-dioxo-1,2,3,4-tetrahydro-pyrimidine-5-carboxamide], the “mPTP Rat liver pIC50” value was under 4.52.
`CC(C)(CNC(=O)c1cc(C(F)(F)F)n[nH]1)Cc1ccccc1` [Example 69, N-(2,2-dimethyl-3-phenylpropyl)-3-(trifluoromethyl)-1H-pyrazole-5-carboxamide] was tested, and the “mPTP Rat liver pIC50” value was under 4.52.
`Cn1nc(C(=O)NC(CCc2ccccc2)CC(F)(F)F)[nH]c1=O` (stereo not drawn) [Example 71, 1-methyl-5-oxo-N-(1,1,1-trifluoro-5-phenylpentan-3-yl)-4,5-dihydro-1H-1,2,4-triazole-3-carboxamide] was tested, and the “mPTP Rat liver pIC50” value was under 4.52.

Going from `CC(C)[C@@H](CNC(=O)c1nn(C)c(=O)[nH]1)Cc1ccccc1` (single isomer, unassigned) [Example 46A] to `CC(C)C(CNC(=O)c1nn(C)c(=O)[nH]1)Cc1ccccc1` (stereo not drawn) [Example 45, N-(2-benzyl-3-methylbutyl)-1-methyl-5-oxo-4,5-dihydro-1H-1,2,4-triazole-3-carboxamide], the “mPTP Rat liver pIC50” value rises from 4.71 to 6.50.

First: O=C(NCC1(Cc2ccccc2)CCC1)c1ccnc(=O)[nH]1 [Example 6, N-((1-benzylcyclobutyl)methyl)-2-oxo-2,3-dihydropyrimidine-4-carboxamide]
Second: Cn1cc(C(=O)NCC2(Cc3ccccc3)CCC2)[nH]c1=O [Example 63, N-((1-benzylcyclobutyl)methyl)-1-methyl-2-oxo-2,3-dihydro-1H-imidazole-4-carboxamide]
The “mPTP Rat liver pIC50” value of the first is higher: 5.13 for the first, 4.65 for the second.

First: CCCC(CNC(=O)c1nn(C)c(=O)[nH]1)Cc1ccccc1 (stereo not drawn) [Example 55, N-(2-benzylpentyl)-1-methyl-5-oxo-4,5-dihydro-1H-1,2,4-triazole-3-carboxamide]
Second: Cn1nc(C(=O)NCC(CO)Cc2ccccc2)[nH]c1=O (stereo not drawn) [Example 70, N-(2-benzyl-3-hydroxypropyl)-1-methyl-5-oxo-4,5-dihydro-1H-1,2,4-triazole-3-carboxamide]
The “mPTP Rat liver pIC50” value of the first is higher: 5.44 for the first, 4.85 for the second.

`Cn1nc(C(=O)NCC2(C)Cc3ccccc3C2)[nH]c1=O` [Example 58] and `Cn1nc(C(=O)NCC2CCc3ccccc3C2)[nH]c1=O` (stereo not drawn) [Example 60] are within 0.2 log units of each other in “mPTP Rat liver pIC50” value: 5.03 for the first, 5.10 for the second.

Compared with `Cn1nc(C(=O)NCCC(C)(C)c2ccccc2)[nH]c1=O` [Example 59], `CN(CC(C)(C)Cc1ccccc1)C(=O)c1nn(C)c(=O)[nH]1` [Example 72, N-(2,2-dimethyl-3-phenylpropyl)-N,1-dimethyl-5-oxo-4,5-dihydro-1H-1,2,4-triazole-3-carboxamide] is lower in “mPTP Rat liver pIC50” value: 5.06 for the first, 4.67 for the second.

First: COc1ccccc1CC1(CNC(=O)c2nn(C)c(=O)[nH]2)CCC1 [Example 61, N-((1-(2-methoxybenzyl)cyclobutyl)methyl)-1-methyl-5-oxo-4,5-dihydro-1H-1,2,4-triazole-3-carboxamide]
Second: CCc1ccccc1CC1(CNC(=O)c2nn(C)c(=O)[nH]2)CCC1 [Example 82, N-((1-(2-Ethylbenzyl)cyclobutyl)methyl)-1-methyl-5-oxo-4,5-dihydro-1H-1,2,4-triazole-3-carboxamide]
The “mPTP Rat liver pIC50” value of the first is lower: 4.99 for the first, 5.27 for the second.

`Cn1nc(C(=O)NCC2(Cc3ccc(F)cc3F)CCCCC2)[nH]c1=O` [Example 73, N-((1-(2,4-Difluorobenzyl)cyclohexyl)methyl)-1-methyl-5-oxo-4,5-dihydro-1H-1,2,4-triazole-3-carboxamide] and `Cc1cc(F)ccc1CC1(CNC(=O)c2nn(C)c(=O)[nH]2)CCC1` [Example 86, N-((1-(4-Fluoro-2-methylbenzyl)cyclobutyl)methyl)-1-methyl-5-oxo-4,5-dihydro-1H-1,2,4-triazole-3-carboxamide] are within 0.2 log units of each other in “mPTP Rat liver pIC50” value: 5.84 for the first, 5.86 for the second.

`CC[C@@H](Cc1ccccc1)[C@H](C)NC(=O)c1nn(C)c(=O)[nH]1` [Example 74, N-((2S,3S)-3-benzylpentan-2-yl)-1-methyl-5-oxo-4,5-dihydro-1H-1,2,4-triazole-3-carboxamide] and `Cc1cccc(CC2(CNC(=O)c3nn(C)c(=O)[nH]3)CCC2)c1` [Example 89, 1-Methyl-N-((1-(3-methylbenzyl)cyclobutyl)methyl)-5-oxo-4,5-dihydro-1H-1,2,4-triazole-3-carboxamide] are within 0.2 log units of each other in “mPTP Rat liver pIC50” value: 5.98 for the first, 6.05 for the second.

Compared with `COc1cccc(CC2(CNC(=O)c3nn(C)c(=O)[nH]3)CCC2)c1` [Example 75, N-((1-(3-Methoxybenzyl)cyclobutyl)methyl)-1-methyl-5-oxo-4,5-dihydro-1H-1,2,4-triazole-3-carboxamide], `Cn1nc(C(=O)NCC2(Cc3cccc(C4CC4)c3)CCC2)[nH]c1=O` [Example 77, N-((1-(3-Cyclopropylbenzyl)cyclobutyl)methyl)-1-methyl-5-oxo-4,5-dihydro-1H-1,2,4-triazole-3-carboxamide] is lower in “mPTP Rat liver pIC50” value: 5.77 for the first, 4.78 for the second.

`Cn1nc(C(=O)NCC2(Cc3ccccc3C(F)F)CCC2)[nH]c1=O` [Example 76, N-((1-(2-(Difluoromethyl)benzyl)cyclobutyl)methyl)-1-methyl-5-oxo-4,5-dihydro-1H-1,2,4-triazole-3-carboxamide] and `Cn1nc(C(=O)NCC2(Cc3cccc(Cl)c3F)CCC2)[nH]c1=O` [Example 85, N-((1-(3-Chloro-2-fluorobenzyl)cyclobutyl)methyl)-1-methyl-5-oxo-4,5-dihydro-1H-1,2,4-triazole-3-carboxamide] are within 0.2 log units of each other in “mPTP Rat liver pIC50” value: 5.65 for the first, 5.83 for the second.

`Cn1nc(C(=O)NCC2(Cc3ccc(F)cc3C(F)(F)F)CCC2)[nH]c1=O` [Example 87, N-((1-(4-Fluoro-2-(trifluoromethyl)benzyl)cyclobutyl)methyl)-1-methyl-5-oxo-4,5-dihydro-1H-1,2,4-triazole-3-carboxamide] and `Cn1nc(C(=O)NCC2(Cc3ccc(Cl)cc3F)CCC2)[nH]c1=O` [Example 90, N-((1-(4-Chloro-2-fluorobenzyl)cyclobutyl)methyl)-1-methyl-5-oxo-4,5-dihydro-1H-1,2,4-triazole-3-carboxamide] are within 0.2 log units of each other in “mPTP Rat liver pIC50” value: 5.57 for the first, 5.61 for the second.

`O=C(NCC1(Cc2ccccc2)CCC1)c1noc(=O)[nH]1` [Example 88, N-((1-Benzylcyclobutyl)methyl)-5-oxo-4,5-dihydro-1,2,4-oxadiazole-3-carboxamide] was tested, and the “mPTP Rat liver pIC50” value was 5.28.
